Measurements reported in article PMC3542985 (The Journal of neuroscience : the official journal of the …, 2013).
“And” between values parts separate entries of the source, which are not always exact repeats. Equal entries are not always repeated. Where two headings read alike, the source gives them in different places.

Columns and labels:
Torpedo nAChR [1] = biological target: T1, Torpedo nAChR (Tetronarce californica, UniProt P02710+P02712+P02714+P02718); assay type: binding
Torpedo nAChR [2] = biological target: T1, Torpedo nAChR; assay: biochemical; assay type: binding
[3] = biological target: T2, Na^+/K^+-ATPase α subunit (Tetronarce californica, UniProt P05025); assay type: binding, Torpedo californica
T2 sequence (P05029 whole entry, other chains not shown): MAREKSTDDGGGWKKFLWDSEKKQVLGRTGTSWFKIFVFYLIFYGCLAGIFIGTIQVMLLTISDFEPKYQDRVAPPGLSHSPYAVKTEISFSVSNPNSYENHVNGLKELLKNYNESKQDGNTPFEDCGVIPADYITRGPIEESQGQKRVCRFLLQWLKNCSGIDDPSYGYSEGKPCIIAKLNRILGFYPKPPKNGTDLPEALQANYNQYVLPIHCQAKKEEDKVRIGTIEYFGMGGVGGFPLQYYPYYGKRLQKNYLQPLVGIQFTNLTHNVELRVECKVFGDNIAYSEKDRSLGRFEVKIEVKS

Torpedo nAChR [4] = biological target: T1, Torpedo nAChR; assay: equilibrium binding of the ion channel blocker [^3H]PCP
Torpedo nAChR [5] = biological target: T1, Torpedo nAChR; assay: equilibrium binding of the ion channel blocker [^3H]tetracaine
Torpedo nAChR [6] = biological target: T1, Torpedo nAChR; assay: equilibrium binding of [^3H]ACh; conditions: IC50, inhibition of [^3H]ACh binding
[7] = biological target: T2, Na^+/K^+-ATPase α subunit; assay type: binding, Torpedo californica; remark: listed apart in the source
[8] = Resting vs. Desensitized, −Carb (no other drugs)

T1 sequence (P02718 22-522): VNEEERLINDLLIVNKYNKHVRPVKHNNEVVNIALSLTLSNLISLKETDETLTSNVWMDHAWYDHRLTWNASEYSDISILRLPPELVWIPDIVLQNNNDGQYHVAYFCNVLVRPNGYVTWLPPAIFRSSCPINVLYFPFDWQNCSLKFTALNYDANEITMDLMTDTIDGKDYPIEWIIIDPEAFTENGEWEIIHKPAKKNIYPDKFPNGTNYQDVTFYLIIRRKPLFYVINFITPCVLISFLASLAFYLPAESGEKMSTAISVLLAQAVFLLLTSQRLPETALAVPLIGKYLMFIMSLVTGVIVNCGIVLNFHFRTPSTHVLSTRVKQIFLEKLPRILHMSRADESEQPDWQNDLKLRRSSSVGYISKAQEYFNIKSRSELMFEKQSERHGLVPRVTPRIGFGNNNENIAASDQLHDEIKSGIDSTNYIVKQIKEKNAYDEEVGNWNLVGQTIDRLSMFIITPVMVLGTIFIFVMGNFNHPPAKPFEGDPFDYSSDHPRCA
T1 sequence (P02714 18-506): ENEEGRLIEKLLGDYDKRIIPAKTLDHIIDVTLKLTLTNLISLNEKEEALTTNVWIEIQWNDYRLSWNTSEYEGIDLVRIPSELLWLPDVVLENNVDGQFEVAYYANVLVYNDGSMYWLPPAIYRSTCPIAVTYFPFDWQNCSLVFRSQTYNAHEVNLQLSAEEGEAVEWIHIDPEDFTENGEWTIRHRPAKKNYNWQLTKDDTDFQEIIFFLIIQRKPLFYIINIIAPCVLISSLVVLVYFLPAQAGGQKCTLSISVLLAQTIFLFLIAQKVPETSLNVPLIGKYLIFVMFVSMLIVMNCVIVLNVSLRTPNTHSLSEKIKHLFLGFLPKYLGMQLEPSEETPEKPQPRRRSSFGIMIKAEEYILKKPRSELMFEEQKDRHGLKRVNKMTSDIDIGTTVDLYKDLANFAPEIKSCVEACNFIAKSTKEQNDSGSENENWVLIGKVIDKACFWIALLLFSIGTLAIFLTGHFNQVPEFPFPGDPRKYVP
T1 sequence (P02712 25-493): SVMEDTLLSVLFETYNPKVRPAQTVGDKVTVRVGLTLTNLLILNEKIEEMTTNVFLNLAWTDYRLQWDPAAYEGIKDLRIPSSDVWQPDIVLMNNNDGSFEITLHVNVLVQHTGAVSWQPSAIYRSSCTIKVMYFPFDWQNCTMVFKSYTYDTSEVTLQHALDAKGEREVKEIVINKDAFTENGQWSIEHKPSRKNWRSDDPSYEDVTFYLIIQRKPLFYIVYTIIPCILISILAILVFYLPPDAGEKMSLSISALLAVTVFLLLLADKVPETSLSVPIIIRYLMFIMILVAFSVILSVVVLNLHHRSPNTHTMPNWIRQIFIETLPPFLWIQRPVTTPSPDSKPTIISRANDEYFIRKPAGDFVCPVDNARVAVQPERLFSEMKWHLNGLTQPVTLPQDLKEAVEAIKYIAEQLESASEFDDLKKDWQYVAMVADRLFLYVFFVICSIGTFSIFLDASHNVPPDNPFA
T1 sequence (P02710 25-461): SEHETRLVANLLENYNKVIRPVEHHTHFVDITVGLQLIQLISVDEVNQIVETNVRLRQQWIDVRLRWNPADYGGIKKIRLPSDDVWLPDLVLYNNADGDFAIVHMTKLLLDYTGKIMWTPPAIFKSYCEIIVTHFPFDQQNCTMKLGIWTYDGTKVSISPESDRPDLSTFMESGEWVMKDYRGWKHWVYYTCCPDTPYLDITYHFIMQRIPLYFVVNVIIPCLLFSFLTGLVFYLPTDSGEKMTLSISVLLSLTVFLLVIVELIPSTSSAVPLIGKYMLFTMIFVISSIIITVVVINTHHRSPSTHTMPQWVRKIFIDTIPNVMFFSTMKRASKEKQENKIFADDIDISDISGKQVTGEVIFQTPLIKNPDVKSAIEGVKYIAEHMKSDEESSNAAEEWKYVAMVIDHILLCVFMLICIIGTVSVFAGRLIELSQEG

`C[N+](C)(C)CCOC(N)=O.[Cl-]` [Carb, carbamylcholine] was tested, and the “inhibition of [^3H]galanthamine photolabeling in the α subunit” value (Torpedo nAChR [1]) was 80%, the “inhibition of [^3H]galanthamine photolabeling of αTyr-190 and αTyr-198” value (Torpedo nAChR [1]) was > 95% and the “reduction of [^3H]galanthamine photolabeling in β subunit” value (Torpedo nAChR [1]) was < 5%. The “reduction of [^3H]galanthamine photolabeling in γ and δ subunits” value (Torpedo nAChR [1]) was ~ 25%, the “alteration of [^3H]physostigmine photoincorporation in nAChR β subunit” value (Torpedo nAChR [2]) was < 5% and the “change of efficiency of [^3H]physostigmine photolabeling at δTyr-439” value (shortened to “change of efficiency … at δTyr-439”) (Torpedo nAChR [2]) was < 20%. For the same compound, the “effect on [^3H]physostigmine photolabeling of γTyr-105” value (Torpedo nAChR [2]) was “enhanced”, the “effect on efficiency of [^3H]physostigmine photolabeling of δTyr-212” value (Torpedo nAChR [2]) was “doubled” and the “increase of [^3H]physostigmine photolabeling of nAChR δ subunit” value (Torpedo nAChR [2]) was ~ 10%. For the same compound, the “inhibition of [^3H]physostigmine photolabeling of αTyr-93” value (Torpedo nAChR [2]) was > 90%, the “inhibition of [^3H]physostigmine photolabeling of αTyr-190, αCys-192 and αTyr-198” value (Torpedo nAChR [2]) was > 85% and the “inhibition of [^3H]physostigmine photolabeling of αV8-20 fragment” value (Torpedo nAChR [2]) was > 75%. For the same compound, the “inhibition of [^3H]physostigmine photolabeling of γTyr-111 and γTyr-117” value (Torpedo nAChR [2]) was 50–60%, the “reduction of [^3H]physostigmine photoincorporation into nAChR α subunit” value (Torpedo nAChR [2]) was 40% and the “reduction of [^3H]physostigmine photoincorporation into nAChR γ subunit” value (Torpedo nAChR [2]) was 10%. The “alteration of [^3H]physostigmine photoincorporation in Na^+/K^+-ATPase α subunit” value [3] was < 5%.

With α-bungarotoxin [α-BgTx] the “alteration of [^3H]physostigmine photoincorporation in nAChR β subunit” value (Torpedo nAChR [2]) was < 5%, the “change of efficiency … at δTyr-439” value (Torpedo nAChR [2]) was < 20% and the “decrease of [^3H]physostigmine photolabeling of nAChR δ subunit” value (Torpedo nAChR [2]) was ~ 10%. The “effect on [^3H]physostigmine photolabeling of γTyr-105” value (Torpedo nAChR [2]) was “unchanged”, the “inhibition of [^3H]physostigmine photolabeling of αTyr-190, αCys-192 and αTyr-198” value (Torpedo nAChR [2]) was > 85% and the “inhibition of [^3H]physostigmine photolabeling of αV8-20 fragment” value (Torpedo nAChR [2]) was > 75%. For the same compound, the “inhibition of [^3H]physostigmine photolabeling of γTyr-111 and γTyr-117” value (Torpedo nAChR [2]) was 50–60%, the “reduction of [^3H]physostigmine photoincorporation into nAChR α subunit” value (Torpedo nAChR [2]) was 40% and the “reduction of [^3H]physostigmine photoincorporation into nAChR γ subunit” value (Torpedo nAChR [2]) was 20%. The “reduction of [^3H]physostigmine photolabeling of δTyr-172” value (Torpedo nAChR [2]) was 70%, the “reduction of efficiency of [^3H]physostigmine photolabeling of δTyr-212” value (Torpedo nAChR [2]) was ~ 25% and the “alteration of [^3H]physostigmine photoincorporation in Na^+/K^+-ATPase α subunit” value [3] was < 5%.

In the case of `CNC(=O)Oc1ccc2c(c1)[C@]1(C)CCN(C)[C@@H]1N2C` [physostigmine], the IC50 (Torpedo nAChR [4]; IC50, inhibition of [^3H]PCP binding) is reported as 1000 µM and 900 µM, the IC50 (Torpedo nAChR [5]) is reported as 5000 µM and the IC50 (Torpedo nAChR [6]) is reported as > 10000 µM. For the same compound, the “decrease of [^3H]physostigmine photolabeling in the nAChR subunits” value (Torpedo nAChR [2]) was 25–40% and the “decrease of [^3H]physostigmine photolabeling in Na^+/K^+-ATPase α subunit” value [3] was < 5%.

`COc1ccc2c3c1O[C@H]1C[C@@H](O)C=C[C@@]31CCN(C)C2` [galanthamine] was tested, and the “reduction of [^3H]galanthamine photolabeling of each nAChR subunit” value (Torpedo nAChR [1]) was ~ 25%, the inhibition at 3000 µM (Torpedo nAChR [4]; read-out: inhibition of [^3H]PCP binding) was 20% and the inhibition at 3000 µM (Torpedo nAChR [5]; read-out: inhibition of [^3H]tetracaine binding) was 10%. For the same compound, the IC50 (Torpedo nAChR [6]) was 3000 µM and 2800 µM, the “change of efficiency … at δTyr-439” value (Torpedo nAChR [2]) was < 20% and the “reduction of [^3H]physostigmine photoincorporation into the nAChR subunits” value (Torpedo nAChR [2]) was “to the same extent as 100 μM physostigmine”. The inhibition at 300 µM (Torpedo nAChR [2]; read-out: inhibition of [^3H]physostigmine photolabeling of γTyr-105, γTyr-111 and γTyr-117) was ~75%, the inhibition at 300 µM (Torpedo nAChR [2]; read-out: inhibition of [^3H]physostigmine photolabeling of δTyr-212) was ~50% and the “reduction of [^3H]galanthamine photolabeling of Na^+/K^+-ATPase α subunit” value [7] was < 5%.

For [^3H]physostigmine, the “efficiency of photolabeling at δTyr-439” value (Torpedo nAChR [2]) was 1 cpm/pmol, the “photolabeling, if it occurred, of αLys-125” value (Torpedo nAChR [2]) was “less than 0.2 cpm/pmol” and the “photolabeling, if it occurred, of αTyr-127” value (Torpedo nAChR [2]) was < 0.05 cpm/pmol. The “photolabeling of δTyr-172” value (Torpedo nAChR [2]; +Carb 1 mM) was 4.9 cpm/pmol, the “photolabeling of δTyr-172” value (Torpedo nAChR [2]; +αBgTx 8 μM) was 1.6 cpm/pmol and the “photolabeling of δTyr-172” value (Torpedo nAChR [2]; Carb-independent) was 4 cpm/pmol. The “photoincorporation into αY190 (Site IV, core aromatics)” value (Torpedo nAChR [2]; [8]) was 10 cpm/pmol, the “photoincorporation into αY198 (Site IV, core aromatics)” value (Torpedo nAChR [2]; [8]) was 20 cpm/pmol and the “photoincorporation into γY111 (Site I)” value (Torpedo nAChR [2]; [8]) was 9 cpm/pmol. The “photoincorporation into γY117 (Site I)” value (Torpedo nAChR [2]; [8]) was 2 cpm/pmol, the “photolabeling of αCys-192” value (Torpedo nAChR [2]; absence of other drugs) was 10 cpm/pmol and the “photolabeling of δTrp-57” value (Torpedo nAChR [2]; data not shown) was 0.8 cpm/pmol. The “photolabeling, if it occurred, of adjacent aromatic amino acids (δTrp-64, δTyr-65)” value (Torpedo nAChR [2]; data not shown) was < 0.2 cpm/pmol, the “photolabeling of δTyr-172” value (Torpedo nAChR [2]; −Carb) was 3.4 cpm/pmol and the “photolabeling of δTyr-172” value (Torpedo nAChR [2]; −αBgTx) was 5 cpm/pmol.
